Test results from patent US20230103444A1 (The Regents of the University of Colorado, a Body Corporate, priority 2020, published 2023).
Like-named read-outs stand apart in the source and are kept apart here.

Tests used:
[1] = system: SW620 tumor organoids; assay: Tumor organoid cytotoxicity (CellTiter-Glo 3D); settings: Homo sapiens
[2] = Mouse liver microsome stability; settings: CD-1, mouse
Procedure: Microsome stability. CD-1 mouse microsomes were commercially purchased and the reactions were performed as previously described. […] The master mix was pre-incubated at 37° C. for 5 min, then 1 mM NADPH was added to start the microsomal activity reaction and maintained at 37° C. throughout the time course. Reactions were stopped at 0, 5, 15, 30, 45, and 60 min by adding 200 μL acetonitrile and analyzed by mass spectrometry. The appropriate microsome controls were also performed in the same reaction conditions.

[3] = system: HCT116 tumor organoids; assay: Tumor organoid cytotoxicity (CellTiter-Glo 3D); format: cell-based, human; settings: Homo sapiens
Procedure: (§1) Cell based cytotoxicity dose response and combination studies. […] Plates were then incubated for 3 days before treatment.
Cell Line Tumor Organoid Culture.
Tumor Organoid Cytotoxicity.

[4] = system: SW620 tumor organoids; assay: Synergy studies with SN38 (LOEWE synergy scores); format: cell-based, human; settings: killing SW620 tumor organoids
Procedure: as §1
(e.g., synergy score 20 corresponds to 20% of response beyond expectation). According to our experience, the synergy scores near 0 gives limited confidence on synergy or antagonism.
When the synergy score is: • Less than −10: the interaction between two drugs is likely to be antagonism; • From −10 to 10: the interaction between two drugs is likely to be additivity; • Larger than 10: the interaction between two drugs is likely to be synergy.

[5] = Human microsomal stability; format: in vitro ADME; settings: human microsomes, Table 6, read-out: Microsomal stability Human t1/2
[6] = target: T1, cat-CHD1L ATPase (Homo sapiens, UniProt Q86WJ1); assay: CHD1L ATPase assay with recombinant catalytic domain (cat-CHD1L); format: biochemical; settings: for IC50: Table 6, read-out: cat-CHD1L inhibition IC50
T1 construct: inferred from Ni-NTA / imidazole purification; made in house; host or cells: E. coli Rosetta 2 (DE3) pLysS; constructs were a gift from Helena Berglund, Karolinska Institute
T1 sequence (Q86WJ1 16-611 limits assumed): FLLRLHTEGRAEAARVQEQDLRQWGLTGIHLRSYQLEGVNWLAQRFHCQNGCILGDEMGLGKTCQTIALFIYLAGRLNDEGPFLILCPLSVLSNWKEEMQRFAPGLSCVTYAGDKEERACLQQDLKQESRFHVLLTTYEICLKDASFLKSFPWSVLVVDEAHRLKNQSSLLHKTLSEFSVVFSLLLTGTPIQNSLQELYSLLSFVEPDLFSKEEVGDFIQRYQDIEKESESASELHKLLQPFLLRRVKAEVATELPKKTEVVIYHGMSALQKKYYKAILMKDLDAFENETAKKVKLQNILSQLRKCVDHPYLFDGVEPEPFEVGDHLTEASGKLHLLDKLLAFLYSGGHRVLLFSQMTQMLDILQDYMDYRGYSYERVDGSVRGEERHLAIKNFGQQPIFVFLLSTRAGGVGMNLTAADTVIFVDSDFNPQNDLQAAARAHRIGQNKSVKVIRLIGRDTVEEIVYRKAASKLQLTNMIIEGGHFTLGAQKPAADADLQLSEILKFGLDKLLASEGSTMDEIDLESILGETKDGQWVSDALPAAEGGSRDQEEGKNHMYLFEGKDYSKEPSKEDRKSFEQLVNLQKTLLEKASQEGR
Procedure: All reactions were carried out using low volume non-binding surface 384-well plates (Corning Inc., Corning N.Y.). cat-CHD1L or fl-CHD1L (100 nM) and 200 nM c-Myc DNA or mononucelosome (Active Motif, Carlsbad, Calif.) were added to a buffer containing 50 mM Tris pH 7.5, 50 mM NaCl, 1 mM DTT, 5% glycerol, and the reaction was initiated by the addition of 10 μM ATP (New England Biolabs, Ipswich, Mass.) to a total volume of 10 μL and incubated at 37° C. for 1 h. ATPase activity was assayed by adding 500 nM of Phosphate Sensor (Life Technologies, Carlsbad, Calif.), containing labeled phosphate-binding protein, specifically labeled with the fluorophore MDCC, and measuring excitation (430 nm) and emission (450 nm) immediately on an EnVision® plate reader (PerkinElmer, Hopkinton, Mass.). An inorganic phosphate standard curve was used to convert the fluorescence to [Pi], and enzyme kinetics were determined using Prism8 (GraphPad Software, San Diego, Calif.).
Assay composition was the same as described above using cat-CHD1L, except that the reaction mixture volume was modified to accommodate addition of drug or DMSO. Using a Janus® liquid handler (PerkinElmer, Hopkinton, Mass.), a selected amount of compounds dissolved in 100% DMSO were mixed with 50 mM Tris pH 7.5, 50 mM NaCl, 1 mM DTT, 5% glycerol buffer to 200 μM in 10% DMSO. […] The negative control used was 1% DMSO and 10 mM EDTA was used as a positive control. Reactions were initiated with the addition of 10 μM ATP and incubated at 37° C. for 1 h. ATPase activity was measured by fluorescence by adding 500 nM Phosphate Sensor. cat-CHD1L was screened against a 20,000-compound diversity set from Life Chemicals (Woodbridge, Conn.) and a Kinase Inhibitor library from Selleck Chemicals (Houston, Tex.).
CHD1L Enzyme ATPase Assay. […] All reactions were carried out using low volume nonbinding surface 384-well plates (Corning Inc., Corning, N.Y.). […] The reaction was initiated by the addition of 10 μmol/L ATP (New England Biolabs, Ipswich, Mass.) to a total volume of 10 μL and incubated at 37° C. for 1 hour. ATPase activity was measured by adding 500 nmol/L of Phosphate Sensor (ThermoFisher, Waltham, Mass.) measuring excitation (430 nm) and emission (450 nm) immediately on an Envision plate reader (PerkinElmer, Waltham, Mass.). Background signal was determined by using all assay components excluding the enzyme.

[7] = SW-620, 72 h, read-out: 3 D Cytotoxicity 72 hr IC50 (μM) SW620
[8] = SW-620, read-out: Tumor Organoid Cytotoxicity IC50 (μM) SW620
[9] = liver microsomes, pH 7.4, In Vitro Half-Life (Min), second series, different liver microsome preparation
[10] = HCT-116, 72 h, Table 6, read-out: 3 D Cytotoxicity 72 hr IC50 (μM) HCT116
[11] = HCT-116, single agent, Table 4A, read-out: Tumor Organoid Cytotoxicity IC50 (μM) HCT116
[12] = SW-620, read-out: IC50 of cytotoxicity in SW620 cells
[13] = liver microsomes, pH 7.4, Microsomal stability Mouse t1/2 (min), Table 6

Structure (SMILES) | IC50 [1, 7] [µM] | IC50 [1, 8] [µM] | half-life at 10 μM [2, 9] [min] | IC50 [3, 10] [µM] | IC50 [3, 11] [µM] | half-life at 10 μM ([2]; microsomes, pH 7.4) [min] | synergism with irinotecan (and SN38), in words [4] | IC50 [1, 12] [µM] | half-life at 10 μM [2, 13] [min] | half-life [5] [min] | IC50 [6] [µM] | CHD1L enzyme inhibition, in words ([6]; recombinant cat-CHD1L)
Cc1nc(N2CCCC2)nc(Nc2ccc(NC(=O)Cc3cccs3)cc2)c1F [Compound 6.1, N-(4-((5-fluoro-6-methyl-2-(pyrrolidin-1-yl)pyrimidin-4-yl)amino)phenyl)-2-(thiophen-2-yl)acetamide] | > 40 | > 40 | 34.9 | > 40 | > 30 | – | – | – | – | – | – | –
Cc1nc(N2CCCC2)nc(Nc2ccc(N(C)C(=O)Cc3cccs3)cc2)c1F [Compound 6.4] | > 40 | 28.4 | – | > 40 | > 30 | 31.4 | – | – | – | – | – | –
Cc1cc(Nc2ccc(NC(=O)c3c[nH]c4ncccc34)cc2)nc(N2CCCC2)n1 [Compound 6.9, N-(4-((6-methyl-2-(pyrrolidin-1-yl)pyrimidin-4-yl)amino)phenyl)-1H-pyrrolo[2,3-b]pyridine-3-carboxamide] | 8.3 | 8.1 | 295 | 19.7 | 19.6 | – | synergism | – | – | – | – | –
COc1cnc(N2CCCC2)nc1Nc1ccc(NC(=O)Cc2cccs2)cc1 [Compound 6.10, N-(4-((5-methoxy-2-(pyrrolidin-1-yl)pyrimidin-4-yl)amino)phenyl)-2-(thiophen-2-yl)-acetamide] | 24.1 | 22.6 | 16.7 | > 40 | > 30 | – | – | – | – | – | – | –
Cc1cc(Oc2ccc(NC(=O)Cc3cccs3)cc2)nc(Cl)n1 [Compound 6.12, N-(4-((2-chloro-6-methylpyrimidin-4-yl)oxy)phenyl)-2-(thiophen-2-yl)acetamide] | > 20 | > 20 | 9.3 | > 40 | > 30 | – | – | – | – | – | – | –
Cc1cc(Oc2ccc(NC(=O)Cc3cccs3)cc2)nc(N2CCCC2)n1 [Compound 6.13, N-(4-((6-methyl-2-(pyrrolidin-1-yl)pyrimidin-4-yl)oxy)phenyl)-2-(thiophen-2-yl)acetamide] | > 20 | > 20 | 43.1 | > 40 | > 30 | – | – | – | – | – | – | –
Cc1cc(Oc2ccc(NC(=O)c3c[nH]c4ccccc34)cc2)nc(N2CCCC2)n1 [Compound 6.14, N-(4-((6-methyl-2-(pyrrolidin-1-yl)pyrimidin-4-yl)oxy)phenyl)-1H-indole-3-carboxamide] | 11.1 | 10.4 | 70.4 | 15.3 | 15.3 | – | – | – | – | – | – | –
Cc1cc(Nc2ccc(NC(=O)Cc3cccs3)cc2)nc(N2CCOCC2)n1 [Compound 6.15, N-(4-((6-methyl-2-morpholinopyrimidin-4-yl)amino)phenyl)-2-(thiophen-2-yl)acetamide] | 13.1 | 16.4 | 22.7 | 19.7 | 19.7 | – | – | – | – | – | – | –
Cc1cc(Nc2ccc(NC(=O)Cc3cccc4ccccc34)cc2)nc(N2CCCC2)n1 [Compound 6.16, N-(4-((6-methyl-2-(pyrrolidin-1-yl)pyrimidin-4-yl)amino)phenyl)-2-(naphthalen-1-yl)acetamide] | – | – | – | 2.4 | 2.43 | – | – | < 10 | 55.5 | 59.5 | – | –
Cc1cc(Nc2ccc(NC(=O)Cc3c[nH]c4cc(Cl)ccc34)cc2)nc(N2CCCC2)n1 [Compound 6.18, 2-(6-chloro-1H-indol-3-yl)-N-(4-((6-methyl-2-(pyrrolidin-1-yl)pyrimidin-4-yl)amino)phenyl)acetamide] | 1.5 | 1.4 | – | 3 | 2.95 | – | – | < 10 | 141 | 88.1 | – | –
Cc1cc(Nc2ccc(NC(=O)Cc3c(C)[nH]c4ccccc34)cc2)nc(N2CCCC2)n1 [Compound 6.21, 2-(2-methyl-1H-indol-3-yl)-N-(4-((6-methyl-2-(pyrrolidin-1-yl)pyrimidin-4-yl)amino)phenyl)acetamide] | 1.7 | 1.6 | – | – | – | – | – | < 10 | 47.8 | 43.8 | – | –
Cc1cc(NCc2ccc(NC(=O)Cc3cc(Br)cs3)cc2)nc(N2CCCC2)n1 [Compound 6.33] | 4 | – | – | 11.6 | – | – | – | < 10 | 76 | 38.2 | 0.3 | good enzyme inhibition
Cc1cc(Nc2ccc(NC(=O)Cc3ccco3)cc2)nc(N2CCCC2)n1 [Compound 6.39] | 14.2 | – | – | 10.8 | – | – | – | – | 70.5 | 88.6 | > 20 | –
Cc1cc(N2CCCC2)nc(NCc2ccc(NC(=O)Cc3cc(Br)cs3)cc2)n1 [Compound 6.41] | 13.5 | – | – | 21.3 | – | – | – | – | 62 | 171 | 0.5 | –
